Measured values published in the supplement of paper PMC11208160.

Test: recombinant barcode read abundance after kanamycin selection (control-corrected) (log10(CPM+1)); higher = more efficient recombination; sequences stand for … in AGTGCAGAGAAAATCGGCCAGTTTTCTCTGCCTGCAGTCCGCATGCCGT…AGATTTATGCAGCGGACTGCCTTTCTCCCAAAGTGATAAACCGGACAGTATCATGGACCGGTTTTCCCGGTAATCCGTATTTGCAAGGTTGGTTTCACT; site = the 11-nt target
How it was run: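 In E. coli, a pooled library matched targets to IS621 bridge RNA target-binding loops and was introduced alongside a donor plasmid. Cells went onto chloramphenicol/ampicillin/kanamycin with 0.1 mM IPTG or onto chloramphenicol/ampicillin LB agar as control, in duplicate. Recombination efficiency, from recombinant-junction barcodes as counts per million, is averaged and control-corrected. It is reported as log10(CPM+1).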
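Also: IS621 recombinase and bridge RNA in Escherichia coli cells.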

Row | Sequence | recombinant barcode read abundance (log10)
1 | TTAGTGGCTTGGGTTCTAACCTGTTGCCT (site TTAGTTGCTAG) | 0.0338
2 | TTATCCGCTTGGGTTCTAACCTGTTGCCT (site CGTAGACCTTA) | 0.0341
3 | TTATCCGCTTGGGTTCTAACCTGTTGCCT (site TTATCCGCTAG) | 1.77
4 | TTATCTCCTTGGGTTCTAACCTGTTGCTT (site TCGTCTCCTAA) | 0.0381
5 | TTATCTCCTTGGGTTCTAACCTGTTGCTT (site TTATCTCCTAA) | 0.205
6 | TTCAAAACTTGGGTTCTAACCTGTTGCCT (site TTCAAAACTAG) | 0.103
7 | TTCAAAACTTGGGTTCTAACCTGTTGCCT (site TTCAAACCTAG) | 0.0651
8 | TTCAAAACTTGGGTTCTAACCTGTTGCCT (site TTCAAAGCTAG) | 0.0504
9 | TTCAAAACTTGGGTTCTAACCTGTTGCCT (site TTCAAATCTAG) | 0.0229
10 | TTCAAAGCTTGGGTTCTAACCTGTTGCCT (site TTCAAAACTAG) | 0.0225
11 | TTCAAAGCTTGGGTTCTAACCTGTTGCCT (site TTCAAACCTAG) | 0.0449
12 | TTCAAAGCTTGGGTTCTAACCTGTTGCCT (site TTCAAAGCTAG) | 0.0407
13 | TTCAAAGCTTGGGTTCTAACCTGTTGCCT (site TTCAAATCTAG) | 0.0721
14 | TTCACAGCTTGGGTTCTAACCTGTTGCCT (site TTCACACCTAG) | 0.0537
15 | TTCACAGCTTGGGTTCTAACCTGTTGCCT (site TTCACAGCTAG) | 0.133
16 | TTCACGCCTTGGGTTCTAACCTGTTGCCT (site TTCACGCCTAG) | 0.187
17 | TTCACGCCTTGGGTTCTAACCTGTTGCCT (site TTCCCGCCTAG) | 0.127
18 | TTCACGCCTTGGGTTCTAACCTGTTGCCT (site TTCGCGCCTAG) | 0.0353
19 | TTCACGCCTTGGGTTCTAACCTGTTGCCT (site TTCTCGCCTAG) | 0.214
20 | TTCACGGCTTGGGTTCTAACCTGTTGCCT (site TTAACGGCTAG) | 0.223
21 | TTCACGGCTTGGGTTCTAACCTGTTGCCT (site TTCACGGCTAG) | 0.0164
22 | TTCCAATCTTGGGTTCTAACCTGTTGCCA (site TGCCAATCTAG) | 0.0654

Row | Sequence | recombinant barcode read abundance (log10)
23 | TTCCAATCTTGGGTTCTAACCTGTTGCCA (site TTCCAATCTTG) | 0.713
24 | TTCCCCACTTGGGTTCTAACCTGTTGCCT (site AATATAGCTTA) | 0.115
25 | TTCCCCACTTGGGTTCTAACCTGTTGCCT (site TTCCCCACTAG) | 1.11
26 | TTCCCGCCTTGGGTTCTAACCTGTTGCCT (site TTCACGCCTAG) | 0.0618
27 | TTCCCGCCTTGGGTTCTAACCTGTTGCCT (site TTCCCGCCTAG) | 0.543
28 | TTCCCGCCTTGGGTTCTAACCTGTTGCCT (site TTCGCGCCTAG) | 0.489
29 | TTCCCGCCTTGGGTTCTAACCTGTTGCCT (site TTCTCGCCTAG) | 0.155
30 | TTCCGAGCTTGGGTTCTAACCTGTTGCGG (site TGTCGAGCTCC) | 0.0848
31 | TTCCGAGCTTGGGTTCTAACCTGTTGCGG (site TTCCGAGCTCC) | 1.01
32 | TTCGAAACTTGGGTTCTAACCTGTTGCGT (site TCCGAGACTAC) | 0.221
33 | TTCGAAACTTGGGTTCTAACCTGTTGCGT (site TTCGAAACTAC) | 1.46
34 | TTCGCATCTTGGGTTCTAACCTGTTGCTT (site CCAAGGCCTCG) | 0.209
35 | TTCGCATCTTGGGTTCTAACCTGTTGCTT (site TTCGCATCTAA) | 0.178
36 | TTCGTAGCTTGGGTTCTAACCTGTTGCCT (site TTCGTAGCTAC) | 0.0736
37 | TTCGTAGCTTGGGTTCTAACCTGTTGCCT (site TTCGTAGCTAG) | 1.22
38 | TTCGTTGCTTGGGTTCTAACCTGTTGCCT (site ATCGTTGCTAG) | 0.0494
39 | TTCGTTGCTTGGGTTCTAACCTGTTGCCT (site CTCGTTGCTAG) | 0.41
40 | TTCGTTGCTTGGGTTCTAACCTGTTGCCT (site GTCGTTGCTAG) | 0.0105
41 | TTCGTTGCTTGGGTTCTAACCTGTTGCCT (site TTCGTTGCTAG) | 0.302
42 | TTCTAGACTTGGGTTCTAACCTGTTGCGG (site TCCTAGACTCC) | 0.189
43 | TTCTAGACTTGGGTTCTAACCTGTTGCGG (site TTCTAGACTCC) | 1.94
44 | TTCTATCCTTGGGTTCTAACCTGTTGCCT (site TTCTATCCTAG) | 0.486

Row | Sequence | recombinant barcode read abundance (log10)
45 | TTCTATCCTTGGGTTCTAACCTGTTGCCT (site TTCTCTCCTAG) | 0.286
46 | TTCTATCCTTGGGTTCTAACCTGTTGCCT (site TTCTGTCCTAG) | 0.0469
47 | TTCTATCCTTGGGTTCTAACCTGTTGCCT (site TTCTTTCCTAG) | 0.094
48 | TTCTATGCTTGGGTTCTAACCTGTTGCGT (site AAGCGCTCTCA) | 0.0654
49 | TTCTATGCTTGGGTTCTAACCTGTTGCGT (site TTCTATGCTAC) | 0.131
50 | TTCTGAGCTTGGGTTCTAACCTGTTGCCT (site TTCTGAGCTAG) | 0.184
51 | TTCTGAGCTTGGGTTCTAACCTGTTGCCT (site TTCTGCGCTAG) | 0.0635
52 | TTCTGAGCTTGGGTTCTAACCTGTTGCCT (site TTCTGGGCTAG) | 0.115
53 | TTCTGAGCTTGGGTTCTAACCTGTTGCCT (site TTCTGTGCTAG) | 0.0128
54 | TTCTGTGCTTGGGTTCTAACCTGTTGCCT (site TTCTGAGCTAG) | 0.0672
55 | TTCTGTGCTTGGGTTCTAACCTGTTGCCT (site TTCTGCGCTAG) | 0.0701
56 | TTCTGTGCTTGGGTTCTAACCTGTTGCCT (site TTCTGGGCTAG) | 0.0555
57 | TTCTGTGCTTGGGTTCTAACCTGTTGCCT (site TTCTGTGCTAG) | 0.0428
58 | TTGAAATCTTGGGTTCTAACCTGTTGCCT (site TTGAAATCTAG) | 0.131
59 | TTGAAATCTTGGGTTCTAACCTGTTGCCT (site TTGACATCTAG) | 0.0533
60 | TTGAAATCTTGGGTTCTAACCTGTTGCCT (site TTGAGATCTAG) | 0.0296
61 | TTGAAATCTTGGGTTCTAACCTGTTGCCT (site TTGATATCTAG) | 0.0563
62 | TTGAACTCTTGGGTTCTAACCTGTTGCCT (site TTGAACTCTAG) | 1.18
63 | TTGAACTCTTGGGTTCTAACCTGTTGCCT (site TTGAGCTCTAG) | 0.0203
64 | TTGAATCCTTGGGTTCTAACCTGTTGCCA (site TTGAATCCTTG) | 0.71
65 | TTGAATCCTTGGGTTCTAACCTGTTGCCA (site TTGAGTCCTTA) | 0.0534
66 | TTGACATCTTGGGTTCTAACCTGTTGCCT (site TTGAAATCTAG) | 0.179

Row | Sequence | recombinant barcode read abundance (log10)
67 | TTGACATCTTGGGTTCTAACCTGTTGCCT (site TTGACATCTAG) | 0.216
68 | TTGACATCTTGGGTTCTAACCTGTTGCCT (site TTGAGATCTAG) | 0.0391
69 | TTGACATCTTGGGTTCTAACCTGTTGCCT (site TTGATATCTAG) | 0.147
70 | TTGACGACTTGGGTTCTAACCTGTTGCCG (site CACCGAGCTTA) | 0.149
71 | TTGACGACTTGGGTTCTAACCTGTTGCCG (site TTGACGACTCG) | 0.452
72 | TTGAGATCTTGGGTTCTAACCTGTTGCCT (site TTGAAATCTAG) | 0.0577
73 | TTGAGATCTTGGGTTCTAACCTGTTGCCT (site TTGACATCTAG) | 0
74 | TTGAGATCTTGGGTTCTAACCTGTTGCCT (site TTGAGATCTAG) | 0.0355
75 | TTGAGATCTTGGGTTCTAACCTGTTGCCT (site TTGATATCTAG) | 0.264
76 | TTGAGCTCTTGGGTTCTAACCTGTTGCCT (site TTGAACTCTAG) | 0.0507
77 | TTGAGCTCTTGGGTTCTAACCTGTTGCCT (site TTGAGCTCTAG) | 0.952
78 | TTGAGGACTTGGGTTCTAACCTGTTGCCA (site TTGAGGACTAC) | 1.14
79 | TTGAGGACTTGGGTTCTAACCTGTTGCCA (site TTGAGGACTTG) | 0.943
80 | TTGAGTACTTGGGTTCTAACCTGTTGCCG (site TTGAGTACTCG) | 0.577
81 | TTGAGTACTTGGGTTCTAACCTGTTGCCG (site TTGATTACTTG) | 0.0556
82 | TTGAGTCCTTGGGTTCTAACCTGTTGCTA (site TTGAATCCTTG) | 0.037
83 | TTGAGTCCTTGGGTTCTAACCTGTTGCTA (site TTGAGTCCTTA) | 0.488
84 | TTGCATCCTTGGGTTCTAACCTGTTGCAG (site CGTTGGTCTTC) | 0.0529
85 | TTGCATCCTTGGGTTCTAACCTGTTGCAG (site TTGCATCCTCT) | 0.802
86 | TTGCCAACTTGGGTTCTAACCTGTTGCCT (site TTGCAAACTAG) | 0.146
